# Data reported in patent US20230174975A1 (priority 2020, published 2023).
# Counter-ions that a name gives are not always drawn. Like-named read-outs stand apart in the source and are kept apart here.
# Legend:
# 229E [1] = format: cell-based, human 229E coronavirus
# [2] = tested on: transmembrane protease, serine 2 (TMPRSS2); assay: Knockdown of endogenous gene in A549 cells by Cas13d and crRNAs (qPCR); format: cell-based, human; conditions: 3 days
# 229E [3] = format: cell-based, human 229E coronavirus; remark: listed apart in the source
# 229E virus = assay: organism not typed; format: cell-based, human 229E coronavirus; conditions: for combination effect with Camostat mesylate (in words) / combination effect with IFNα 4b (in words) / inhibition of virus replication: PAC-MAN with the guide; for inhibition of virus replication: no drug, 24 hpi, vs NT6
# SARS-CoV-2 = format: cell-based; conditions: supernatant test, SARS-CoV-2 MOI=0.01
# [4] = tested on: methylenetetrahydrofolate dehydrogenase 1 (MTHFD1); assay: Knockdown of endogenous gene in A549 cells by Cas13d and crRNAs (qPCR); format: cell-based, human; conditions: 3 days
# [5] = single agent alone, vs control (NT)
compound,measurement,setting,value
crR19: crRNA (guide) targeting RdRP of human 229E coronavirus; not R19 of Table 9 (guide CCAGCAGAAAUAAUACGGCUAG; chemistry not given here),inhibition of virus replication,229E [1],about 80%
SEQ ID NO: 13605: crRNA targeting endogenous gene TMPRSS2 (guide TACAGCGTAAAGAAACCACTGCT; chemistry not fully specified),knockdown of TMPRSS2 mRNA (in words),[2],efficiently knocked down
N20: crRNA tested against live SARS-CoV-2 in Cas13d VeroE6 cells; best crRNA of that screen (guide ACUUCAUCAAUUAUGUCAGUUU; chemistry not given here),inhibition of virus replication,"229E [1]; guide screening, MRC-5 cells, viral titer in supernatant by RT-qPCR (FIG. 11)",95%
same,protection of cells from death by 229E infection (in words),"229E [3]; 229E MOI 0.01, up to 5 day infection",protected the cells from death
same,protection of cells from death at different MOIs (in words),229E [3]; 229E MOI up to 1.0 (FIG. 21A),protected the cells from death
same,combination effect with Camostat mesylate (in words),229E virus,promising synergistic effect
same,combination effect with IFNα 4b (in words),229E virus,additive effect
same,fold decrease of virus titer,"229E virus; PAC-MAN with the guide combined with IFNα 4b, vs NT",10.1 fold
same,inhibition of virus replication,229E virus,84%
same,fold decrease of virus titer,229E virus; [5],6.2 fold
same,repression efficiency (viral RNA load),SARS-CoV-2,96%
R19: crRNA targeting SARS-CoV-2 RdRP sequence (Table 8); not 229E crR19 (guide CACCATCGTAACAATCAAAGTA; chemistry not given here),combination effect with Camostat mesylate (in words),229E virus,promising synergistic effect
same,combination effect with IFNα 4b (in words),229E virus,minus effect
same,inhibition of virus replication,229E virus,50%
SEQ ID NO: 13606: crRNA targeting endogenous gene MTHFD1 (guide CAATATCATAAAAACAGGGCCGG; chemistry not fully specified),knockdown of MTHFD1 mRNA (in words),[4],efficiently knocked down
crN1: crRNA (guide) targeting N gene of human 229E coronavirus; not N1 of Table 9 (guide AGCCCAUUUGACUGUAGCCAUC; chemistry not given here),inhibition of virus replication,229E [1],about 80%
same,cells alive,229E [3],more than 90%
crR8: crRNA (guide) targeting RdRP of human 229E coronavirus (guide AAUCUUUAAUUGCAGCAUCACC; chemistry not given here),inhibition of virus replication,229E [1],about 80%
"CN(C)C(=O)COC(=O)Cc1ccc(OC(=O)c2ccc(NC(=N)N)cc2)cc1 [Camostat mesylate, reference compound]",EC50,229E virus,~500 µM
same,combination effect of the drug with PAC-MAN (in words),229E virus,synergistic effects
same,fold decrease of virus titer,229E virus; [5],2.4 fold
same,cytotoxicity,,no obvious cytotoxicity
